From publication PMC10165273, “Itch receptor MRGPRX4 interacts with the receptor activity–modifying proteins” (The Journal of Biological Chemistry, 2023)
Several values for one entry are separate records, joined by “and”; a condition that tells them apart may be missing. Identical values can stand only once.

What was measured:
[1] = target: T1, MRGPRX4 + RAMP1 (Homo sapiens, UniProt Q96LA9); assay: IP1 accumulation, MRGPRX4 coexpressed with RAMP1; format: cell-based; design: key to IP1 Basal / response to agonist, X4:ramp1.I:1 / response to agonist, X4:ramp1.I:2 / response to agonist, X4:ramp1.I:0.25 / response to agonist, X4:ramp1.I:0.5: % IP1; unstimulated mock = 0%, fully stimulated MRGPRX4 = 100%; settings: Figure 4c-f, agonist 100µM, MRGPRX4 = 100
T1 construct: expressed in transfected cells; host or cells: HEK293T
T1 sequence (Q96LA9 whole entry): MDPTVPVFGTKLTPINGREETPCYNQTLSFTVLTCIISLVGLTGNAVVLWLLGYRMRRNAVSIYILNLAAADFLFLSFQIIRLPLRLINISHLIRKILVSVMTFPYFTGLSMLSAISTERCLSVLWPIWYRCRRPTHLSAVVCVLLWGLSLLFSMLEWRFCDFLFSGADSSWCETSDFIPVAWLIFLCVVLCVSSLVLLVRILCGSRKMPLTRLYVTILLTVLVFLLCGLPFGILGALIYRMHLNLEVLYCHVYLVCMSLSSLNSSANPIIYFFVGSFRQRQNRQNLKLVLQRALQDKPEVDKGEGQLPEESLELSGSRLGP

[2] = target: T2, MRGPRX4 + RAMP3 (Homo sapiens, UniProt Q96LA9); assay: IP1 accumulation, MRGPRX4 coexpressed with RAMP3; format: cell-based; design: key: % IP1; unstimulated mock = 0%, fully stimulated MRGPRX4 = 100%; settings: Figure 4c-f; agonist 100µM; X4:ramp3 1:2; MRGPRX4 = 100
T2 construct: expressed in transfected cells; host or cells: HEK293T
T2 sequence (Q96LA9 whole entry): as above

[3] = system: mock-transfected HEK293T cells; assay: IP1 accumulation, mock-transfected cells; format: cell-based, human; design: IP1 Basal / IP1 span / IP1 Emax / IP1 accumulation, dose-response (Figure 1a) / IP1 accumulation with YM (Figure 1c) / IP1 accumulation: unit not given here; settings: pcDNA (mock), individual replicates

SMILES: C[C@H](CCC(=O)NCCS(=O)(=O)O)[C@H]1CC[C@H]2[C@@H]3CC[C@@H]4C[C@H](O)CC[C@]4(C)[C@H]3C[C@H](O)[C@]12C [TDCA, Taurodeoxycholic acid]
- response to agonist, X4:ramp1.I:0.25 ([1]; X4:ramp1 1:0.25): 91.5401 and 91.7191
- response to agonist, X4:ramp1.I:0.5 ([1]; X4:ramp1 1:0.5): 85.1903 and 91.5141
- response to agonist, X4:ramp1.I:1 ([1]; X4:ramp1 1:1): 95.31 and 91.9832
- response to agonist, X4:ramp1.I:2 ([1]; X4:ramp1 1:2): 89.0717 and 99.7164
- response to agonist, X4:ramp3.I:2 [2]: 51.7108 and 61.6065
- IP1 accumulation, dose-response (Figure 1a) ([3]; log [agonist] (M) -4): 0.277 and 0.4314 and 0.7552 and 0.05214 and 0.8196 and 0.004346 and 0.07799 and 0.2082 and -0.7055 and 0.02887 and 0.02154 and -0.2702
- IP1 accumulation, dose-response (Figure 1a) ([3]; log [agonist] (M) -4.95424): 0.666 and 0.2913 and 0.6803 and 0.05284 and 0.1544 and 0.254 and 0.03541 and -0.4236 and -0.5986 and 0.1648 and -0.7514 and -0.1187
- IP1 accumulation, dose-response (Figure 1a) ([3]; log [agonist] (M) -5.90849): 0.6055 and 0.3564 and 0.9177 and 0.421 and 0.4207 and 0.09062 and 0.2243 and -0.1271 and -0.5946 and 0.5044 and 0.1318 and -0.2093
- IP1 accumulation, dose-response (Figure 1a) ([3]; log [agonist] (M) -6.86273): 0.7575 and 0.6878 and 1.269 and 0.5282 and 0.9623 and 0.4904 and 0.6445 and 0.2971 and -0.08157 and 1.2983 and 1.581 and 1.374
